Assay [1] concerns HT29 cells. Briefly: Fluorescence microscopy of FITC-labeled peptides. It is filed as cell-based, human. The following applies: 10 μM; for internalization within HT29 cells: 37° C.; for binding to the surface of HT29 cells: 15 min, 4° C. Here is the method:
(§1) Preferential binding of the FITC-Peptide 2 and FITC-Control peptide 2 to target and non-target cells was also validated via fluorescence microscopy. HT29 and Hs738.St/Int. cells were grown in 22 mm2 cover slips with ˜80% confluence. Blocking of non-specific binding was performed by adding PBS/0.5% BSA for 30 min. The cells were then incubated with 10 μM of FITC-Peptide 2 or FITC-Control peptide 2 either at 4 or 37° C. for 15 min followed by 1 μg/mL Hoechst dye (Sigma Aldrich, St. Louis, Mo.) along with the peptide. The cells were washed with PBS for 3 times and fixed with 4% paraformaldehyde at room temperature for 10 min. After fixation, the cells were washed again with PBS (1×) and mounted with ProLong® Gold reagent (Invitrogen, Carlsbad, Calif.) and the fluorescence images were acquired with Leica Confocal system. (Leica Microsystems GMBH, Wetzlar, 35578 Germany)
In addition, the ability of the FITC-Peptide 2 peptide to internalize within the HT29 cells was tested. HT29 cells were incubated for 15 min. at either 4° C. or 37° C. in the presence of 10 μM FITC-Peptide 2.
(§2) Preferential binding of the FITC-labeled candidate and control peptides to the target and non-target cells was further validated via fluorescence microscopy. HT29 and Hs738.St/Int. cells were grown on cover slips to ˜80% confluence. Blocking of non-specific binding was performed by adding PBS/0.5% BSA for 30 min. The cells were then incubated with 10 μM of 5-FITC-labeled candidate or control peptide at either 4 or 37° C. for 15 min followed by staining with 1 μg/mL Hoechst dye (Sigma Aldrich, St. Louis, Mo.) along with the peptide. The cells were washed 3× with PBS and fixed with 4% paraformaldehyde at RT for 10 min. After fixation, the cells were washed again with PBS and mounted with ProLong Gold reagent (Invitrogen, Carlsbad, Calif.) and fluorescence images were collected with confocal microscopy (Leica TCS SP5 Microsystems, Bannockburn, Ill.).

The next assay has as its system Hs738.St/Int. cells. Briefly: Fluorescence microscopy of FITC-labeled peptides. It is filed as cell-based, human. The settings on record: 10 μM, 15 min. Here is the method:
as §1, §2

The test system of assay [2] is HT29 cells. Briefly: Determination of binding constant (plate reader fluorescence). On the set-up: species or system human. Here is the method:
The binding affinity of FITC-Peptide 2 to HT29 cells (1×10^5) was determined using various concentrations of the peptide. The fluorescence intensity of the peptide bound to the HT29 cells was measured at saturation. Then, the FITC-labeled peptide was serially diluted in PBS at concentrations that varied from 0 to 70 μmol/L and incubated with 1×10^5 HT29 cells at 4° C. for 1 hr. After washing 3 times with cold PBS/0.2% Tween 20 solution, the unbound peptide was rinsed off. The cells were resuspended in 200 μL PBS and transferred to a 96 well plate. The fluorescence intensity I was measured at 525 nm using 485 nm as the excitation wavelength on a multi-well plate reader (CytoFluor Series 4000; Applied Biosystems Inc, Foster City, Calif.). Binding of the peptide to the cells was calculated using the peptide emission intensity with the same concentration without the cells present. The peptide equilibrium dissociation constant Kd=1/Ka was calculated by performing a least squares fit of the data to the non-linear equation I=(I0+ImaxKa[X])/(I0+Ka[X]). I0 and Imax are the initial and maximum fluorescence intensities, corresponding to no peptide and at saturation, respectively, and [X] represents the concentration of the bound peptide. Origin 6.1 data analysis software (Origin Lab Corp, Northampton, Mass.) was used to fit the equation for non-linear least square fitting. […]

The test system of assay [3] is human colon surgical specimens (normal mucosa, dysplastic adenomas, carcinoma). Briefly: Binding of synthetic peptides to human surgical specimens of colon cancer (Example 9). As for the experimental part: Fresh frozen sections from human surgical specimens were cryosectioned with […] and used to localize peptide binding. The sectioned tissues were air dried and washed with PBS 1×. Sections were incubated with FITC labeled peptides (10 μM) for 15 min at RT. The sections were washed three times each for 1 min in PBS and fixed with 4% paraformaldehyde for 10 min. After fixing, the sections were washed again (1×) and mounted with ProLong® Gold reagent with DAPI (Invitrogen, Carlsbad, Calif.). The sections were imaged under a confocal microscope ([…]). All surgical specimens were obtained from the tissue procurement core of University of Michigan with approval from the Institutional Review Board (IRB).

Another assay has as its system colonic adenomas. Briefly: In vivo imaging with non-scanning endoscope, FITC-labeled peptides. Also noted: species or system CPC; Apc mice. The settings on record: Non-scanning Endoscopy Results; FITC label; mean ± SD. The text has this: Specific binding of the candidate peptides to primary dysplastic colonic epithelial cells were validated on flow cytometry ex vivo and with small animal endoscopy in vivo using FITC-labeled peptides using a non-scanning white light endoscope.

“Also recorded” adds a separate entry of the source.

A word on the Kd: it is the free concentration of one partner at which half of the binding sites on the other are occupied at equilibrium, for simple one-to-one binding. For “KCCFPAQ-FITC [FITC-Peptide 2, KCCFPAQ with FITC at the C-terminus on the side chain of lysine residue via GGGSK linker]”, the “internalization within HT29 cells” value in the assay with HT29 cells [1] is “diffuse staining throughout the cells”; in the assay with HT29 cells [1] (listed as KCCFPAQ peptide), “diffuse peptide staining throughout the cells”. The “binding to the surface of HT29 cells” value in the assay with HT29 cells [1] is given as “binds to the surface of the HT29; also recorded: confined to the cell surface”; with HT29 cells [1] (listed as KCCFPAQ peptide), “binds to the surface of the HT29 cells”. The “binding to Hs738.St/Int. cells on microscopy” value is “not the surface of the Hs738.St/Int cells” in the assay on Hs738.St/Int. cells and “No binding” in the assay on Hs738.St/Int. cells (listed as KCCFPAQ peptide). The Kd in the assay on HT29 cells [2] (FITC-labeled peptide 0 to 70 μM, 4° C., 1 hr, R^2=0.988) was 65 nM; in the assay with HT29 cells [2] (summary of results), 65 nM. Besides, the “T/B carcinoma compared to normal mucosa” value in assay [3] is listed as 7. In assay [3], the “binding to carcinoma relative to dysplastic adenomas” value amounted to 1.5 fold. In assay [3] (10 μM, 15 min, RT), the “binding to normal mucosa” value is listed as “no binding was observed”. Further, the “staining of pre-malignant lesions (dysplastic adenomas) and malignant lesions (carcinoma)” value in assay [3] (10 μM, 15 min, RT) is “stained consistently”. Besides, the figures for the “T/B ratio FITC-Peptide 2 vs. FITC-Control peptide 2” value in assay [3] (adenoma), in assay [3] (carcinoma) and in assay [3] (normal mucosa) were 3, 6 and 1, respectively. The “Average T/B” value in the assay with colonic adenomas is reported as 1.69 ± 0.70.

The values above are taken from patent US8901276B2, “Peptide reagents and methods for detection of colon dysplasia” (The Regents of the University of Michigan, priority 2010, dated 2014).
